Measurements as given in patent US11058680B2, “Combinations of opioid/TLR4 antagonists and acetaminophen for use in the treatment of emotional pain and insomnia” (Allodynic Threapeutics, LLC, priority 2016, dated 2021).
Where “and” joins values, the source holds several entries; their conditions need not be identical. Equal entries are not always repeated.

System: migraine attacks
Assay: Naltrexone/acetaminophen open-label pilot study, acute treatment of migraine: headache pain (4-point scale; relief score ≤1, pain-free score = 0), associated symptoms, additional meds
Assay type: in vivo, human
Procedure: Sixteen unique patients were enrolled in an open phase pilot study for the acute treatment of migraine attacks, insomnia, and emotional pain. Of the sixteen patients, eleven were evaluated for one migraine attack, one for two attacks, two for four attacks, one for six attacks, and one for fourteen attacks. A total of forty-one […] treatments were evaluated. Patients received a single dose of one of the following treatment options:
The majority of the patients remained in the clinic for observation for 2 hours after dosing. They completed headache diary assessments immediately before and after dosing at time points: 7, 15, and 30 minutes; and 1, 1.5, 2, 3, 6, 12, 24, and 48 hours. Headache pain was assessed on a 4-point scale (0=none; 1=mild; 2=moderate; 3=severe). The assessment of photophobia, phonophobia, nausea, and neck/shoulder pain was assessed as present or absent. The assessment of emotional pain was recorded on a 4-point scale (0=none, 1=mild, 2=moderate, 3=severe). The assessment of difficulty sleeping or falling asleep (insomnia) was assessed on a 4-point scale (0=none, 1=mild, 2=moderate, 3=severe) at baseline, for the night before treatment and for the following nights at 24, and 48 hours. Patients recorded side effects severity at each time point. Patients recorded the time of the first rescue medication dose and all additional headache medications used within 48 hours. Patients were required to stay awake to record their assessments in the first 2 hours, sleeping was permitted thereafter. While asleep, assessments were completed according to patients' best estimation. For data analysis, it was assumed that a migraine attack is a unique patient. Patients were asked to specify (yes or no answer) to whether they experienced emotional pain symptoms such as: hurt feelings, sadness, fear, or anger. Patients who replied positively to having emotional pain were asked to specify the cause into one of the following options: relationship, work/school, money/debt, health, or loss/grief.

[1] = 12 h, NTX/APAP 2.25 mg/325 mg, NTX 2.25 mg
[2] = 12 h, NTX/APAP 3.25 mg/325 mg, NTX 3.25 mg
[3] = 12 h, NTX/APAP 5 mg/325 mg, NTX 5 mg
[4] = 12 h, NTX/APAP […]325 mg, NTX 1.5 mg
[5] = 12 h, naltrexone/acetaminophen 2.25 mg/325 mg (N=21), naltrexone 2.25 mg (N=9)
[6] = 24 h, NTX/APAP 2.25 mg/325 mg, NTX 2.25 mg
[7] = 24 h, NTX/APAP 3.25 mg/325 mg, NTX 3.25 mg
[8] = 24 h, NTX/APAP 5 mg/325 mg, NTX 5 mg
[9] = 24 h, NTX/APAP […]325 mg, NTX 1.5 mg
[10] = 24 h, naltrexone/acetaminophen 2.25 mg/325 mg (N=21), naltrexone 2.25 mg (N=9)
[11] = 48 h, NTX/APAP 2.25 mg/325 mg, NTX 2.25 mg
[12] = 48 h, NTX/APAP 3.25 mg/325 mg, NTX 3.25 mg
[13] = 48 h, NTX/APAP 5 mg/325 mg, NTX 5 mg
[14] = 48 h, NTX/APAP […]325 mg, NTX 1.5 mg
[15] = 48 h, naltrexone/acetaminophen 2.25 mg/325 mg (N=21), naltrexone 2.25 mg (N=9)

Q: Which results are given for O=C1CC[C@@]2(O)[C@H]3Cc4ccc(O)c5c4[C@@]2(CCN3CC2CC2)[C@H]1O5 [naltrexone]?
A: Nausea-free [1]: 9 (100) n (%); Neck/shoulder pain-free [1]: 9 (100) n (%); Phonophobia-free [1]: 9 (100) n (%); Photophobia-free [1]: 8 (88) n (%); Additional meds taken [2]: 0; Headache pain-free [2]: 3 (100) n (%); Headache pain-relief [2]: 3 (100) n (%); Most bothersome symptom-free [2]: 3 (100) n (%); Nausea-free [2]: 3 (100) n (%); Neck/shoulder pain-free [2]: 3 (100) n (%); Phonophobia-free [2]: 3 (100) n (%); Photophobia-free [2]: 3 (100) n (%); Additional meds taken [3]: 0; Headache pain-free [3]: 1 (100) n (%); Headache pain-relief [3]: 1 (100) n (%); Most bothersome symptom-free [3]: 1 (100) n (%); Nausea-free [3]: 1 (100) n (%); Neck/shoulder pain-free [3]: 1 (100) n (%); Phonophobia-free [3]: 1 (100) n (%); Photophobia-free [3]: 1 (100) n (%); Additional meds taken [4]: 0; Headache pain-free [4]: 3 (100) n (%); Headache pain-relief [4]: 3 (100) n (%); Most bothersome symptom-free [4]: 3 (100) n (%); Nausea-free [4]: 3 (100) n (%); Neck/shoulder pain-free [4]: 3 (100) n (%); Phonophobia-free [4]: 3 (100) n (%); Photophobia-free [4]: 3 (100) n (%); Additional meds taken (12 h, combined doses): 0; Headache pain-free (12 h, combined doses): 14 (88) n (%); Headache pain-relief (12 h, combined doses): 16 (100) n (%); Most bothersome symptom-free (12 h, combined doses): 16 (100) n (%); Nausea-free (12 h, combined doses): 16 (100) n (%); Neck/shoulder pain-free (12 h, combined doses): 16 (100) n (%); Phonophobia-free (12 h, combined doses): 16 (100) n (%); Photophobia-free (12 h, combined doses): 15 (94) n (%); Headache pain-free (12 h, naltrexone 1.5 mg (N=3)): 100%; Headache pain-free [5]: 77% and 100%; Headache pain-relief [5]: 100%; Most bothersome symptom-free [5]: 100%; Headache pain-free (12 h, naltrexone/acetaminophen 3.25 mg/325 mg (N=3), naltrexone 3.25 mg (N=3)): 100%; Additional meds taken [6]: 0; Headache pain-free [6]: 8 (88) n (%); Headache pain-relief [6]: 9 (100) n (%); Most bothersome symptom-free [6]: 9 (100) n (%); Nausea-free [6]: 9 (100) n (%); Neck/shoulder pain-free [6]: 9 (100) n (%); Phonophobia-free [6]: 9 (100) n (%); Photophobia-free [6]: 9 (100) n (%); Additional meds taken [7]: 0; Headache pain-free [7]: 3 (100) n (%); Headache pain-relief [7]: 3 (100) n (%); Most bothersome symptom-free [7]: 3 (100) n (%); Nausea-free [7]: 3 (100) n (%); Neck/shoulder pain-free [7]: 3 (100) n (%); Phonophobia-free [7]: 3 (100) n (%); Photophobia-free [7]: 3 (100) n (%); Additional meds taken [8]: 0; Headache pain-free [8]: 1 (100) n (%); Headache pain-relief [8]: 1 (100) n (%); Most bothersome symptom-free [8]: 1 (100) n (%); Nausea-free [8]: 1 (100) n (%); Neck/shoulder pain-free [8]: 1 (100) n (%); Phonophobia-free [8]: 1 (100) n (%); Photophobia-free [8]: 1 (100) n (%); Additional meds taken [9]: 0; Headache pain-free [9]: 3 (100) n (%); Headache pain-relief [9]: 3 (100) n (%); Most bothersome symptom-free [9]: 3 (100) n (%); Nausea-free [9]: 3 (100) n (%); Neck/shoulder pain-free [9]: 3 (100) n (%); Phonophobia-free [9]: 3 (100) n (%); Photophobia-free [9]: 3 (100) n (%); Additional meds taken (24 h, combined doses): 0; Headache pain-free (24 h, combined doses): 15 (94) n (%); Headache pain-relief (24 h, combined doses): 16 (100) n (%); Most bothersome symptom-free (24 h, combined doses): 16 (100) n (%); Nausea-free (24 h, combined doses): 16 (100) n (%); Neck/shoulder pain-free (24 h, combined doses): 16 (100) n (%); Phonophobia-free (24 h, combined doses): 16 (100) n (%); Photophobia-free (24 h, combined doses): 16 (100) n (%); Headache pain-free (24 h, naltrexone 1.5 mg (N=3)): 100%; Headache pain-free [10]: 88% and 100%; Headache pain-relief [10]: 100%; Most bothersome symptom-free [10]: 100%; Headache pain-free (24 h, naltrexone/acetaminophen 3.25 mg/325 mg (N=3), naltrexone 3.25 mg (N=3)): 100%; Additional meds taken [11]: 0 (0); Headache pain-free [11]: 9 (100) n (%); Headache pain-relief [11]: 9 (100) n (%); Most bothersome symptom-free [11]: 9 (100) n (%); Nausea-free [11]: 9 (100) n (%); Neck/shoulder pain-free [11]: 9 (100) n (%); Phonophobia-free [11]: 9 (100) n (%); Photophobia-free [11]: 9 (100) n (%); Additional meds taken [12]: 0; Headache pain-free [12]: 3 (100) n (%); Headache pain-relief [12]: 3 (100) n (%); Most bothersome symptom-free [12]: 3 (100) n (%); Nausea-free [12]: 3 (100) n (%); Neck/shoulder pain-free [12]: 3 (100) n (%); Phonophobia-free [12]: 3 (100) n (%); Photophobia-free [12]: 3 (100) n (%); Additional meds taken [13]: 1; Headache pain-free [13]: 1 (100) n (%); Headache pain-relief [13]: 1 (100) n (%); Most bothersome symptom-free [13]: 1 (100) n (%); Nausea-free [13]: 1 (100) n (%); Neck/shoulder pain-free [13]: 1 (100) n (%); Phonophobia-free [13]: 1 (100) n (%); Photophobia-free [13]: 1 (100) n (%); Additional meds taken [14]: 0; Headache pain-free [14]: 2 (66) n (%); Headache pain-relief [14]: 2 (66) n (%); Most bothersome symptom-free [14]: 2 (66) n (%); Nausea-free [14]: 2 (66) n (%); Neck/shoulder pain-free [14]: 3 (100) n (%); Phonophobia-free [14]: 3 (100) n (%); Photophobia-free [14]: 2 (66) n (%); Additional meds taken (48 h, combined doses): 1; Headache pain-free (48 h, combined doses): 15 (94) n (%); Headache pain-relief (48 h, combined doses): 15 (94) n (%); Most bothersome symptom-free (48 h, combined doses): 15 (94) n (%); Nausea-free (48 h, combined doses): 15 (94) n (%); Neck/shoulder pain-free (48 h, combined doses): 16 (100) n (%); Phonophobia-free (48 h, combined doses): 16 (100) n (%); Photophobia-free (48 h, combined doses): 15 (94) n (%); Headache pain-free (48 h, naltrexone 1.5 mg (N=3)): 100%; Headache pain-free [15]: 100%; Headache pain-relief [15]: 100%; Most bothersome symptom-free [15]: 100%; Headache pain-free (48 h, naltrexone/acetaminophen 3.25 mg/325 mg (N=3), naltrexone 3.25 mg (N=3)): 100%; Headache pain-free (from 90 minutes to 48 hours, naltrexone alone, all dosages (1.5, 2.25, 3.25, 5 mg)): 100%
